The values that follow come from PubChem BioAssay (NCI).

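All cell lines were grown in 96-well plates and treated with compound for 48 hours. Abbreviation: GI50, concentration required for 50% inhibition of growth. At the TGI there is no net growth.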 A value given as a limit tells only on which side of the number the result lay.

Test in all cases: growth of human tumour cells (NCI), 48 h
Test [1] concerns T-47D breast.
Test [2] has as its system SK-MEL-5 melanoma.
The subject of test [3] is MALME-3M melanoma.
The test system of test [4] is SN12C renal.
The test system of test [5] is EKVX NSCLC.
Test [6] deals with COLO 205 colon.
For test [7], the system named is BT-549 breast.
For test [8], the system named is HL-60(TB) leukemia.
Test [9] deals with LOX IMVI melanoma.
For test [10], the system named is TK-10 renal.

With `COC(=O)CCC(=O)c1c(C)[nH]c(/C=C2\N=C(c3ccc[nH]3)C=C2OC)c1C`, the GI50 was 0.931 µM in test [1]; 0.567 µM in [2]; 1.49 µM in test [3]; 1.45 µM in test [4]; 1.1 µM in test [5]; 1.04 µM in test [6]. The GI50 was 0.587 µM in test [7], 0.602 µM in test [8], 0.0666 µM in test [9] and 1.18 µM in [10]. The TGI in test [1] was determined as 4.09 µM; in test [2], 1.71 µM; in test [3], 3.47 µM; in [4], 5.38 µM; in [5], 2.94 µM; in test [6] it was 3.29 µM. The TGI in [7] came out at 2.17 µM; in test [8] it was 2.83 µM; in [9], 0.261 µM; in test [10], 7.74 µM.

Consider `COCCOC(=O)C1=C(C)NC2=C(C(=O)CC(c3ccccc3OC)C2)C1c1cccc(O)c1` (stereo not given), for which the GI50 in test [1] is 5.99 µM; in test [2], 3.54 µM; in [3], 13.9 µM; in test [4], 21.7 µM; in [5], 14.4 µM; in test [6], 8.55 µM. In addition, the GI50 in test [7] was 11.7 µM; in test [8], 3.2 µM; in test [9] it was 9.04 µM; in test [10], 4.26 µM. The TGI in test [1] was 54.3 µM; in [2] it was 16.6 µM; in test [3] it was 47.6 µM; in [4], over 100 µM; in [5], over 100 µM; in [6], 24.8 µM. Moreover, the TGI in test [7] was 37.5 µM; in test [8] it was 36 µM; in [9], 30.4 µM; in test [10] it was 30.7 µM.

As for `CCCN(CCC)c1ccc(CO)c(C)c1`, the GI50 in test [1] is 13.9 µM; in test [2], 18.9 µM; in test [3], 11.3 µM; in test [4], 79.4 µM; in test [5] it was 28.4 µM; in test [6] it was 19.4 µM. The GI50 in test [7] is 47.6 µM; in [8], 21.6 µM; in test [9], over 100 µM; in test [10], 13.8 µM. In addition, the TGI in test [1] is 33.5 µM; in test [2] it was 62.3 µM; in [3] it was 94.4 µM; in test [4] it was over 100 µM; in test [5] it was over 100 µM; in test [6] it was 68.8 µM. The TGI in test [7] is over 100 µM; in test [8], 48.7 µM; in test [9], over 100 µM; in test [10], 61 µM.

Consider `Cn1c(COC(=O)N2CCCCC2)nc2c(N3CCOCC3)nc(-c3ccccc3)nc21`, for which the GI50 is 1.47 µM in test [1]; 1.47 µM in test [2]; 1.39 µM in test [3]; 0.868 µM in test [4]; 1.22 µM in [5]; 1.03 µM in test [6]. Moreover, the GI50 in test [7] was 1.01 µM; in test [8], 0.592 µM; in test [9], 0.166 µM; in test [10], 1.35 µM. Moreover, the TGI was determined as 3.91 µM in test [1]; 2.79 µM in [2]; 2.72 µM in test [3]; 2.17 µM in [4]; 2.65 µM in [5]; 2.63 µM in [6]. Besides, the TGI is 2.26 µM in [7], 2.44 µM in test [8], 0.337 µM in [9] and 2.66 µM in test [10].

On to `ClCCN(CCCl)c1ccc(-n2cnc3c(Cl)ncnc32)cc1`, for which the GI50 was 3.28 µM in [1]; 2.36 µM in test [2]; 2.17 µM in test [3]; 3.17 µM in test [4]; 1.65 µM in test [5]; 5.74 µM in test [6]. For the same molecule, the GI50 is 3.51 µM in [7], 2.5 µM in test [8], 2 µM in test [9] and 13 µM in test [10]. For the same molecule, the TGI in [1] turned out to be 12.9 µM; in [2] it was 5.94 µM; in [3] it was 4.41 µM; in test [4], 10.2 µM; in test [5], 3.66 µM; in [6], 19.1 µM. Moreover, the TGI was determined as 12.9 µM in test [7], 6.58 µM in test [8], 4.09 µM in test [9] and 81.9 µM in test [10].

`O=C(Nc1cc(C(F)(F)F)ccc1F)Nc1n[nH]c2ccccc12`: the GI50 is 0.215 µM in test [1]; over 100 µM in [2]; over 100 µM in test [3]; over 100 µM in test [4]; over 100 µM in [5]; over 100 µM in test [6]. In addition, the GI50 in test [7], in test [8], in test [9] and in [10] was over 100 µM each time. The TGI in test [1], in test [2], in [3], in test [4], in [5] and in test [6] was over 100 µM each time. In addition, the TGI in [7], in test [8], in test [9] and in test [10] was over 100 µM each time.
